Assay results from patent US7326721B2 (Hypnion, Inc., priority 2003, dated 2008).

Key:
[1] = tested on: Muscarinic, Non-selective, Central; assay: Table 12 panel: Muscarinic, Central; assay type: binding; settings: 1.0E−6, average N=2
From the text: (§1) The percentage inhibition (average; N=2) for these receptors is shown below in Table 12.
(§2) Values in Table 12 are expressed as percentage inhibition of specific binding, and these values represent the average of replicate tubes at each of the concentrations tested.

[2] = tested on: Calcium Channel, Type L (Dihydropyridine Site); assay: Table 12 panel: Calcium Channel, Type L; assay type: binding; settings: 1.0E−6, average N=2
From the text: as §1, §2

Thromboxane A2 (h) = Thromboxane A2 (h) (Homo sapiens, UniProt P21731); assay: Table 12 panel: Thromboxane A2; settings: 1.0E−6, average N=2, read-out: percentage inhibition of specific binding
Sequence of Thromboxane A2 (h) (P21731 whole entry): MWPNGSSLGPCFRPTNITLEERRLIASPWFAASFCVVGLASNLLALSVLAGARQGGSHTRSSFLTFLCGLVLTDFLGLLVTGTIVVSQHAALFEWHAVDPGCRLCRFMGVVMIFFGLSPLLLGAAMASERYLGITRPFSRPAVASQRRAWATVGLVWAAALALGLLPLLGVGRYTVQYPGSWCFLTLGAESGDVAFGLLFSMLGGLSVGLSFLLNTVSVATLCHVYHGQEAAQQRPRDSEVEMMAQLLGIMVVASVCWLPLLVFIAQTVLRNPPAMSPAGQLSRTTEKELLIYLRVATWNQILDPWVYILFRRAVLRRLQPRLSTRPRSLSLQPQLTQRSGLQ
From the text: as §1, §2

Serotonin, Non-selective = assay: Table 12 panel: Serotonin, Non-selective; assay type: binding; settings: 1.0E−6, average N=2
From the text: as §1, §2

Endothelin, ET-B (h) = Endothelin, ET-B (h) (Homo sapiens, UniProt P24530); assay: Table 12 panel: Endothelin, ET-B; settings: 1.0E−6, average N=2, read-out: percentage inhibition of specific binding
Sequence of Endothelin, ET-B (h) (P24530 27-442): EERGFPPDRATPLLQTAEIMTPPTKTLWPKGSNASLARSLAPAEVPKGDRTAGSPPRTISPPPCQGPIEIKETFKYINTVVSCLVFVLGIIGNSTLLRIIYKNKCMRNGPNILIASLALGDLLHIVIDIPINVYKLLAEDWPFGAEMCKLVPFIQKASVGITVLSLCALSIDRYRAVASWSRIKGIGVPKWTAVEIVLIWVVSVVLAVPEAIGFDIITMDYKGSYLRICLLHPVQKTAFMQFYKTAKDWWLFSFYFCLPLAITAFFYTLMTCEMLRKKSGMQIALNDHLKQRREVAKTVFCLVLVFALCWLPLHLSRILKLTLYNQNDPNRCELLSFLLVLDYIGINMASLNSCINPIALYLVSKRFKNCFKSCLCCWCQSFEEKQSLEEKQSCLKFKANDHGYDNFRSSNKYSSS
From the text: as §1, §2

[3] = molecular target: Oxidase, MAO-A, Peripheral (Homo sapiens, UniProt P21397); assay: Table 12 panel: MAO-A; assay type: biochemical; settings: 1.0E−6, average N=2
Sequence of Oxidase, MAO-A, Peripheral (P21397 whole entry): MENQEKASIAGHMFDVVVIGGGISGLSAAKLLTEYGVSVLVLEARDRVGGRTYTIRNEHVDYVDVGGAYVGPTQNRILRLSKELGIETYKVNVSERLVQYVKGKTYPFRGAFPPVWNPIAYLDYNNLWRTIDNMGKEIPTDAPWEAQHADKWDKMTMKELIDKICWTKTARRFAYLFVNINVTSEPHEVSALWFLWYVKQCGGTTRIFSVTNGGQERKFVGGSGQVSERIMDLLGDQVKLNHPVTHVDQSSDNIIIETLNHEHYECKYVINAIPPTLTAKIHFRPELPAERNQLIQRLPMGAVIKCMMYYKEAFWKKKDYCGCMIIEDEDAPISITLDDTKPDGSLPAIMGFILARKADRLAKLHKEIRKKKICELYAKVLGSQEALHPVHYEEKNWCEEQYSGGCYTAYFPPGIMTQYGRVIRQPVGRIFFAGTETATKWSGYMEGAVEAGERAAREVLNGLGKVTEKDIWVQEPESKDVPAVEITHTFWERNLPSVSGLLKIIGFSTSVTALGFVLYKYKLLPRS
From the text: as §1, §2

Neurokinin, NK1 = Neurokinin, NK1 (Homo sapiens, UniProt P25103); assay: Table 12 panel: NK1; settings: 1.0E−6, average N=2, read-out: percentage inhibition of specific binding
Sequence of Neurokinin, NK1 (P25103 whole entry): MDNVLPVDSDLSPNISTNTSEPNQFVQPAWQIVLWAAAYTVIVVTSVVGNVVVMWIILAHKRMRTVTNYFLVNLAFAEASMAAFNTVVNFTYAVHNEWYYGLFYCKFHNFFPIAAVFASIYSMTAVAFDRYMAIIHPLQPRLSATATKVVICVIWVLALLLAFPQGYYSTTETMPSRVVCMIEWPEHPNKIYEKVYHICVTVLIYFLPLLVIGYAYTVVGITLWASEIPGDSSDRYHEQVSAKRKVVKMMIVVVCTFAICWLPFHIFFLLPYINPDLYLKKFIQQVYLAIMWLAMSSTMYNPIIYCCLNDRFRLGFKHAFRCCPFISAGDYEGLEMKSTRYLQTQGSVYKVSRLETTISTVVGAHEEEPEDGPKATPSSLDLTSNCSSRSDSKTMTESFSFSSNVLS
From the text: as §1, §2

[4] = tested on: Adrenergic, Beta, Non-selective; assay: Table 12 panel: Adrenergic, Beta; assay type: binding; settings: 1.0E−6, average N=2
From the text: as §1, §2

human hepatocytes = assay: In vitro metabolism in human (cryopreserved) hepatocytes; assay type: in vitro ADME; settings: human hepatocyte cultures
Method: Metabolism of test articles in monkey and human cryopreserved hepatocytes is assayed as follows:
Sample is diluted with DMSO, to prepare 100 μM and 10 μM stocks. 0.1% formic acid in acetonitrile is prepared by the addition of 1 mL formic acid per 1 L acetonitrile (store RT for 3 months). 10 minute, 60 and 120 minute 96 well quenching plates are prepared with 150 μL acetonitrile+0.1% formic acid in each well. Store on ice or refrigerated.
Next, hepatocytes are thawed and 100 μL of cell suspension is placed into a microfuge tube with 100 μL 0.4% Trypan Blue solution and gently mix by inversion. A small amount of the stained cell suspension (approximately 15 μL) is placed into a clean hemacytometer with a coverslip. The hemacytometer is placed onto the stage of the microscope and the focus and power are adjusted until a single counting square fills the field. The number of cells in the four outside corner subdivided squares of the hemacytometer are counted. Viable cells are opalescent, round, and pale with a darker outline. Non-viable cells are dark, opaque blue.
198 μL of hepatocytes are transferred to relevant wells on dosing plate.
Plates are preincubated for at least 15 min. […]
(§3) Cytochrome P450 inhibition was studied with HY2901 in vitro. […] In addition, the in vitro rate of metabolism in rat, dog, monkey, and human hepatocyte cultures was determined for HY2901.

Beagles = assay: 14-day dog study with recovery phase; assay type: in vivo
Method: (§4) The toxicity and the toxicokinetics of HY2901 when administered daily via oral gavage (Phase 1) or capsules (Phase 2) to dogs for at least 14 days was determined. The reversibility, persistence, or delayed occurrence of observable effects following a 7-day (Phase 1) or 14-day (Phase 2) recovery period was also assessed. Doses of 3, 10, 30, and 70 mg/kg/day were studied.

[5] = 14-day dog study with recovery phase; assay type: in vivo; settings: Beagle, dog, in vivo
Method: as §4

rat hepatocytes = assay: In vitro rate of metabolism in rat hepatocyte cultures; assay type: in vitro ADME
Method: as §3

CYP 2D6 = molecular target: T1, CYP 2D6 (Homo sapiens, UniProt P10635); assay: Cytochrome P450 inhibition: CYP 2D6; assay type: in vitro ADME; settings: human microsomal preparation
T1 construct: in a commercially available human microsomal preparation; purchased; host or cells: human microsomal preparation
T1 sequence (P10635 whole entry): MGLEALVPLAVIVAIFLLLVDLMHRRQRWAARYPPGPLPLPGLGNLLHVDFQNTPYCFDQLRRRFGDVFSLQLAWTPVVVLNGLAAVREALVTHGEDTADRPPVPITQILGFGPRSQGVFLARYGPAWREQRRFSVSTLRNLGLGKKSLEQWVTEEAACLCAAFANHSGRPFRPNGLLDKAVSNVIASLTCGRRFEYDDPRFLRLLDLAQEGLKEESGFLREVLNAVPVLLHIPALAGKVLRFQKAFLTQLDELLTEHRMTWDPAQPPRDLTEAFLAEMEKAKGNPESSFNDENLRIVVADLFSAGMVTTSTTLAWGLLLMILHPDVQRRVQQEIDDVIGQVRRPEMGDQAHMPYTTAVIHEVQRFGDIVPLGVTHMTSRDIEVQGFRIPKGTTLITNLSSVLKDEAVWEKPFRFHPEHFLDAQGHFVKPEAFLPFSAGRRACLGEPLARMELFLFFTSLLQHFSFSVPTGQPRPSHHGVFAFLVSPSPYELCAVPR
Method: as §3

Crl: CD(SD)IGS BR rats = assay: Acute rat study (toxicity and MTD, oral gavage, 5 days); assay type: in vivo
Method: The purpose of this study was to evaluate the toxicity and maximum tolerated dose (MTD) of the test articles when given via oral gavage to rats. Male Crl: CD®(SD)IGS BR rats (3/group) were assigned to 5 groups. At initiation of dosing, animals were approximately 7 weeks old with body weights ranging from 172 to 206 g. Each group received either 50, 100, 150, 200, or 250 mg/kg of HY2901 once daily for 5 days. All surviving animals were sacrificed on Day 6. Assessment of toxicity was based on mortality, clinical observations, and body weight data.

[6] = 50 to 250 mg/kg once daily for 5 days

## CC(CC(=O)O)N1CCC(=C2c3ccc(F)cc3COc3ccccc32)CC1 (centres unmarked) [Compound 37]
[1]
  percentage inhibition of specific binding: 12.84%
[2]
  percentage inhibition of specific binding: 5.82%
Thromboxane A2 (h)
  inhibition at 1 µM: 6.55%
Serotonin, Non-selective
  percentage inhibition of specific binding: 21.45%
Endothelin, ET-B (h)
  inhibition at 1 µM: -6.51%
[3]
  percentage inhibition: −17.23% ^
Neurokinin, NK1
  inhibition at 1 µM: 10.3%
[4]
  percentage inhibition of specific binding: 6.97%

## CC(C)(CN1CCC(=C2c3ccc(F)cc3COc3ccccc32)CC1)C(=O)O [Compound 49a]
Human hepatocytes
  in vitro metabolism: little metabolism was observed
Beagles; 3 mg/kg/day Phase 1 dogs
  clinical observations: no treatment-related clinical observations
Beagles; Phase 1 and 2
  respiration rates, rectal body temperatures, body weights, food consumption, electrocardiograms, ophthalmic examinations: no changes
Beagles; Phase 2 (capsules)
  clinical observations: treatment-related head tremors, ataxia, hypoactivity, and excessive salivation
Beagles; dog, in vivo
  clinical laboratory data: no evidence in the clinical laboratory data of an effect
  survival: survived until scheduled sacrifice
[5]
  NOAEL at 14 days: 70 mg/kg/day
Rat hepatocytes
  in vitro metabolism: extensively metabolized
CYP 2D6
  inhibition of CYP 2D6 activity: did not inhibit
Crl: CD(SD)IGS BR rats; [6]
  ataxia: dose-response relationship was observed in the incidence and duration of ataxia
  hypoactivity / apparent sleep: Hypoactivity was observed in all rats
Crl: CD(SD)IGS BR rats; two 250 mg/kg rats, relative to other rats
  Day 6 body weights: slightly decreased
